Measurements taken from paper PMC4574636 (Biochemical pharmacology, 2015).
“Also recorded” adds a separate entry of the source.

Assays:
[1] = molecular target: T1, human AOX1 I1085A (Homo sapiens, UniProt Q06278, I1085A); assay: Methotrexate hydroxylation by purified recombinant human AOX1 I1085A mutant; assay type: in vitro ADME; settings: I1085A single mutant, Figure 5
T1 sequence (Q06278 1-1338 I1085A): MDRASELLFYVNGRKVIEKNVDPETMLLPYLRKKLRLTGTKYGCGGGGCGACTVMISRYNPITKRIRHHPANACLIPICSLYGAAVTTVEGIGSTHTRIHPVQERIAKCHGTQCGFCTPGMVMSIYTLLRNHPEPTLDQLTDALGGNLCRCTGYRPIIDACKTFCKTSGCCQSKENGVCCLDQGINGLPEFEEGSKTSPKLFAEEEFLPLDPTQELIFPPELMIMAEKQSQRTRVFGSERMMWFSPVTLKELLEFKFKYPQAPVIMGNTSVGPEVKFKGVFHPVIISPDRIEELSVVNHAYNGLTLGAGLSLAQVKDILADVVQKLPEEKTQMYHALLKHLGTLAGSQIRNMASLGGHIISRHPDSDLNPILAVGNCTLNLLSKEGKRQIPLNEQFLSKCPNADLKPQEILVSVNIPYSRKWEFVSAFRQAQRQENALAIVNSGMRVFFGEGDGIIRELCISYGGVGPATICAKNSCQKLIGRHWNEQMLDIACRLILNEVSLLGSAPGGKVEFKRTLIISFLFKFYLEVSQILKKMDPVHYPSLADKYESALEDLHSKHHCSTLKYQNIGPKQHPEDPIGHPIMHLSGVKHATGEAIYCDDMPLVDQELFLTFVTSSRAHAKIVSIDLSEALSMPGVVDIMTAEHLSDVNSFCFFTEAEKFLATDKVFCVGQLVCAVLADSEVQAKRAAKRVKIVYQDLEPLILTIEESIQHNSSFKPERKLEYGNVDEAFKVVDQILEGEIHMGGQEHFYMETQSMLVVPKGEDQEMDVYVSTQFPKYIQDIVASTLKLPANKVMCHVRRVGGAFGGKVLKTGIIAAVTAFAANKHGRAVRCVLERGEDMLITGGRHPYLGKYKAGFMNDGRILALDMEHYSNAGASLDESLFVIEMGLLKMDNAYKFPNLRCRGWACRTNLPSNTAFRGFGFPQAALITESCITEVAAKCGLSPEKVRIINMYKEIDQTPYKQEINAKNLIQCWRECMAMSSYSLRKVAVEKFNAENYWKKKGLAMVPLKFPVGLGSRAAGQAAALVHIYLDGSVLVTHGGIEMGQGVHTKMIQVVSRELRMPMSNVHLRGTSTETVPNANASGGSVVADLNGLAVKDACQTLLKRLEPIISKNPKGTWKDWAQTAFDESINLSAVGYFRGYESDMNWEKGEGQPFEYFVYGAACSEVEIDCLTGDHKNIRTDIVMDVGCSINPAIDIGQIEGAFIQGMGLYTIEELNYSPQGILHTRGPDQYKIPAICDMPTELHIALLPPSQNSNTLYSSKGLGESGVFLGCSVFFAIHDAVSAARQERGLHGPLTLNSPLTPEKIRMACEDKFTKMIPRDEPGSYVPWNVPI

[2] = molecular target: T2, AOX1 (Macaca mulatta, UniProt I0FRB2); settings: monkey liver cytosol; calculated from Vmax and AOX1 level (figure 1A)
T2 sequence (I0FRB2 1-1338): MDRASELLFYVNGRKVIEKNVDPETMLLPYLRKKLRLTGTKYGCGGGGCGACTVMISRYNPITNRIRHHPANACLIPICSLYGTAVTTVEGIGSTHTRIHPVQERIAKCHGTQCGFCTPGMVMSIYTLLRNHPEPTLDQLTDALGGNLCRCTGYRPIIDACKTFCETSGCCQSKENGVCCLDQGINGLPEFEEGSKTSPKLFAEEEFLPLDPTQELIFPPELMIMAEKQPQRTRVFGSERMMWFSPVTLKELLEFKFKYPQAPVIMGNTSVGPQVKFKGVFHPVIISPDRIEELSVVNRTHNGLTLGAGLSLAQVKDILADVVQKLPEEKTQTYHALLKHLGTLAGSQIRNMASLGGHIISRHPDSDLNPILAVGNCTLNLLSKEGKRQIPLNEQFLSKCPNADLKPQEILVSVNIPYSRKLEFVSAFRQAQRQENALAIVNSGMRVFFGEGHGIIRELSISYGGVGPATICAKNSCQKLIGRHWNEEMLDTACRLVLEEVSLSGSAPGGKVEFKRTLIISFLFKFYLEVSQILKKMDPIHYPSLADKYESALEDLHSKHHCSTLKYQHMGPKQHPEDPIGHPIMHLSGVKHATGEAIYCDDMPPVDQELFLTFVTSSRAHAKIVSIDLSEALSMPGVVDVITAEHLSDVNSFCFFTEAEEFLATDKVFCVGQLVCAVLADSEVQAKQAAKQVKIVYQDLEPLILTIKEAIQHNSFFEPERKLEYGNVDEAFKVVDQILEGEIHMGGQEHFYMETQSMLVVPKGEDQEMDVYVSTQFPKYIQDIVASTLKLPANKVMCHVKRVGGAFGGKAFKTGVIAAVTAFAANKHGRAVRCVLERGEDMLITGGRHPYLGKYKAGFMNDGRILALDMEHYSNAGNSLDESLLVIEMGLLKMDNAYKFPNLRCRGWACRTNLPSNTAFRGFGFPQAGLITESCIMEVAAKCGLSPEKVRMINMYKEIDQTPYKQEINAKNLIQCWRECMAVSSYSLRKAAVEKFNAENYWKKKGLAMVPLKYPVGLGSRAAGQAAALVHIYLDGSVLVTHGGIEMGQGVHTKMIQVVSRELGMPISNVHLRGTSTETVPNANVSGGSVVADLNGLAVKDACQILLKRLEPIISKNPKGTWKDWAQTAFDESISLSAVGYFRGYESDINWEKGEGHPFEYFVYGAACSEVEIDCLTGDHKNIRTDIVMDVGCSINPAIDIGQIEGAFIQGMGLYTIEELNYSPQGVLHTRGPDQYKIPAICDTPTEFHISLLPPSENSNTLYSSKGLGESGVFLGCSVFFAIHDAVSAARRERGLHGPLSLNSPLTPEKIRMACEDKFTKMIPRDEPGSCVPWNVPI

CN(Cc1cnc2nc(N)nc(N)c2n1)c1ccc(C(=O)N[C@@H](CCC(=O)O)C(=O)O)cc1 [Methotrexate, 4-amino-N^1^0-methylpteroglutamic acid]
Km / affinity vs wild type [1]: lower Km and higher affinity; also recorded: Km that was similar to cytosolic AOX from rabbit liver
Methotrexate hydroxylation activity vs wild type [1]: slightly higher activity compared to the wild type
kcat (Vmax/[AOX1]) [2]: 35 min⁻¹
